# Where “and” joins values, the source holds several entries; their conditions need not be identical. Identical values can stand only once.
# Test system: dorsal raphe 5-HT neurons
# Experiment: In vivo electrophysiological recording of 5-HT firing activity
# Parameters: species or system rat
# Description: Serotonin (5-HT) neurons are implicated in the regulation of mood (for a review see Gobbi G, (2005) Inter. Rev. Neurobiology 65: 249-271). The increase in serotonergic neurotransmission is linked to the action of antidepressant drugs. For example fluoxetine (Prozac) increases the 5-HT availability by blocking its […]; mirtazapine (Remeron) increases 5-HT firing activity via an indirect alpha-2 receptor blockade. Consequently, in order to test if compound 5b increases the 5-HT firing activity, in vivo 5-HT neuron activity was recorded after single (40 or 80 mg/kg, subcutaneous) and repeated injections with compound 5b (40 mg/kg, i.p. once a day, for 4 days). For animals treated with a single injection (acute) the recording was done immediately following the injection. For animals treated with repeated injection (sub-chronic) the recording was done 24 hours after the last injection (FIG. 6).
# Rats (Sprague-Dawley) were anesthetized with chloral hydrate (400 mg/kg i.p.) and placed in a stereotaxic frame (David Kopf Instruments) with the skull positioned horizontally. To maintain a full anesthetic state in which there is no reaction to a tail or paw pinch, chloral hydrate supplements of 100 mg/kg were given as needed. A burr hole was drilled in the midline, 0.9 to 1.2 mm anterior to interaural zero (Paxinos, G. and Watson, C. (1982); The rat brain in Stereotaxic Coordinates; Academy, Sydney). Dorsal raphe was encountered just below the Sylvius aqueduct, 5.0 to 6.5 mm ventral to dura mater. The dorsal raphe 5-HT neurons, in physiological conditions, were identified according to the following criteria: a slow (0.5-2.5 Hz) and regular firing rate; and a long-duration (0.8-1.2 ms) positive action potential (Baraban and Aghajanian (1980) Neuropharmacology 19, 355-363). Neuronal activity was recorded and processed by a computer connected to CED1401 interface-Spike 2 software (Cambridge Electronic Design, Cambridge, UK).
smiles,measurement,setting,value
"COc1cccc(N(CCNC(C)=O)c2ccccc2)c1 [5b, N-{2-[(3-Methoxyphenyl)-phenylamino]ethyl}acetamide]",increase of spontaneous activity of 5-HT neurons,acute single injection 40 mg/kg subcutaneous,40%
same,5-HT neuron firing rate,acute single injection 40 mg/kg subcutaneous (control 0.66 Hz),0.93 Hz
same,increase of spontaneous activity of 5-HT neurons,acute single injection 80 mg/kg subcutaneous,106%
same,5-HT neuron firing rate,acute single injection 80 mg/kg subcutaneous (control 0.66 Hz),1.36 Hz
same,increase of spontaneous activity of 5-HT neurons,"sub-chronic 40 mg/kg i.p. once a day for 4 days, recorded 24 h after last injection",133%
same,5-HT neuron mean firing rate,"sub-chronic 40 mg/kg once a day for 4 days, recorded 24 h after last injection (control 1.2 Hz)",2.8 Hz and 2.80 Hz

# Source: patent US8791163B2 (McGill University, priority 2006, dated 2014)
